Active and inactive are the calls of the source. No rule for the calls is given here.
System: rodent carcinogenicity bioassays, tumor incidence
Assay: CCRIS carcinogenicity studies
Method in brief: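 NCI-built, expert-reviewed records of carcinogenicity and related test outcomes (mutagenicity, tumor promotion/inhibition) compiled from published and report sources, historical span 1985-2011, not updated.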

With `C=C(F)F` the carcinogen call (Species: RAT, Strain/Sex: SPRAGUE-DAWLEY/FEMALE, Route: GAVAGE, Dose: 0, 4.12, 8.25 MG/KG BW IN OLIVE OIL 1/D 4-5 D/WK FOR 52 WK (STUDY DURATION: LIFETIME), Dose: 0, 4.12, 8.25 MG/KG BW IN OLIVE OIL 1/D 4-5 D/WK FOR 52 WK (STUDY DURATION: LIFETIME), Tumor Site: Type of Lesion: [BRAIN WAS ONLY SITE EVALUATED]) was “inactive; negative” and the carcinogen call (Species: RAT, Strain/Sex: SPRAGUE-DAWLEY/MALE, Route: GAVAGE, Dose: 0, 4.12, 8.25 MG/KG BW IN OLIVE OIL 1/D 4-5 D/WK FOR 52 WK (STUDY DURATION: LIFETIME), Dose: 0, 4.12, 8.25 MG/KG BW IN OLIVE OIL 1/D 4-5 D/WK FOR 52 WK (STUDY DURATION: LIFETIME), Tumor Site: Type of Lesion: [BRAIN WAS ONLY SITE EVALUATED]) was “inactive; negative”.

In the case of `N#Cc1c(Cl)cccc1Cl`, the carcinogen call (Species: MICE, Strain/Sex: SWISS/MALE, Route: INTRAPERITONEAL, Dose: 2 PPM (0.0005MG) 1/3 D FOR 13 TIMES (STUDY DURATION: 375 D), Tumor Site: Type of Lesion: LYMPHATIC SYSTEM: HISTIOCYTIC LYMPHOMA, PLASMA CELL LYMPHOMA, LIVER: HEPATOCELLULAR CARCINOMA) is reported as “active; positive” and the carcinogen call (Species: MICE, Strain/Sex: SWISS/MALE, Route: SUBCUTANEOUS, Dose: 2 PPM (0.0005MG) 1/3 D FOR 13 TIMES (STUDY DURATION: 375 D), Tumor Site: Type of Lesion: LYMPHATIC SYSTEM: PLASMA CELL LYMPHOMA, LUNG: CARCINOMA, BODY CAVITY: MESOTHELIOMA, LIVER: HEPATOCELLULAR CARCINOMA, Tumor Site: Type of Lesion: LYMPHATIC SYSTEM: PLASMA CELL LYMPHOMA, LUNG: CARCINOMA, BODY CAVITY: MESOTHELIOMA, LIVER: HEPATOCELLULAR CARCINOMA) is reported as “active; positive”.

For `CCC(=O)Oc1ccc(/C(CC)=C(\CC)c2ccc(OC(=O)CC)cc2)cc1`, the carcinogen call (Species: RAT, Route: SUBCUTANEOUS, Tumor Site: Type of Lesion: PITUITARY GLAND) was “active; positive”.

In the case of `O[C@H]1[C@H]2O[C@H]2C=C[C@@H]1O`, the carcinogen call (Species: MOUSE, Strain/Sex: SWISS/FEMALE, Route: INTRAPERITONEAL, Dose: 0, 13.7 UMOL ADMINISTERED AS 3 UNEQUAL DOSES (1/7, 2/7, AND 4/7 OF THE TOTAL DOSE) OVER A 2-WK PERIOD (STUDY DURATION: 2, Tumor Site: Type of Lesion: LUNG: ADENOMA) is reported as “active; positive” and the carcinogen call (Species: MOUSE, Strain/Sex: SWISS/MALE, Route: INTRAPERITONEAL, Dose: 0, 13.7 UMOL ADMINISTERED AS 3 UNEQUAL DOSES (1/7, 2/7, AND 4/7 OF THE TOTAL DOSE) OVER A 2-WK PERIOD (STUDY DURATION: 2, Tumor Site: Type of Lesion: LUNG: ADENOMA) is reported as “active; positive”.

`CO[C@@H]1[C@@H](O[C@@H]2O[C@H](C)[C@@H](O[C@H]3C[C@@](C)(O)[C@@H](OC(=O)CC(C)C)[C@H](C)O3)[C@H](N(C)C)[C@H]2O)[C@@H](CC=O)C[C@@H](C)[C@@H](O)/C=C/C=C/C[C@@H](C)OC(=O)C[C@H]1OC(C)=O` was tested, and the carcinogen call (Species: RAT, Strain/Sex: F344/FEMALE, Route: ORAL, Dose: 0, 1.25, 2.5% IN DIET FOR 104 WK (STUDY DURATION: 106 WK), Dose: 0, 1.25, 2.5% IN DIET FOR 104 WK (STUDY DURATION: 106 WK)) was “inactive; negative” and the carcinogen call (Species: RAT, Strain/Sex: F344/MALE, Route: ORAL, Dose: 0, 1.25, 2.5% IN DIET FOR 104 WK (STUDY DURATION: 106 WK)) was “inactive; negative”.

In the case of `CCC(C)n1c(=O)[nH]c(C)c(Br)c1=O` (stereo not drawn), the carcinogen call (Species: Mouse, Strain/Sex: CD-1/Female (80/sex/dose), Route: Oral, Dose: 0, 250, 1250, 5000 ppm in diet for 18 mo, Dose: 0, 250, 1250, 5000 ppm in diet for 18 mo) is reported as “inactive; negative; purity 95%”, the carcinogen call (Species: Mouse, Strain/Sex: CD-1/Male (80/sex/dose), Route: Oral, Dose: 0, 250, 1250, 5000 ppm in diet for 18 mo, Dose: 0, 250, 1250, 5000 ppm in diet for 18 mo, Tumor Site: Type of Lesion: Liver: significant increase in combined hepatocellular adenomas and carcinomas at highest dose, liver lesions (neoplasti) is reported as “active; positive: purity 95%” and the carcinogen call (Species: Rat, Strain/Sex: Crl:CD (BR)/Female (62/sex/group), Route: Oral, Dose: 0, 50, 250, 2500 ppm in diet for 2 yr, Dose: 0, 50, 250, 2500 ppm in diet for 2 yr) is reported as “inactive; negative (mtd may have been exceeded); purity: 95-99%”. For the same molecule, the carcinogen call (Species: Rat, Strain/Sex: Crl:CD (BR)/Male (62/sex/group), Route: Oral, Dose: 0, 50, 250, 2500 ppm in diet for 2 yr, Dose: 0, 50, 250, 2500 ppm in diet for 2 yr) was “inactive; negative (mtd may have been exceeded); purity: 95-99%”.

In the case of `Cc1cc(N=Nc2ccccc2C)ccc1N`, the carcinogen call (Species: DOG, Route: ORAL, Tumor Site: Type of Lesion: LIVER, GALL BLADDER, URINARY BLADDER, Tumor Site: Type of Lesion: LIVER, GALL BLADDER, URINARY BLADDER) is reported as “active; positive”, the carcinogen call (Species: HAMSTER, Route: ORAL, Tumor Site: Type of Lesion: LIVER, URINARY BLADDER) is reported as “active; positive” and the carcinogen call (Species: MOUSE, Route: INTRAPERITONEAL, ORAL, SUBCUTANEOUS, DERMAL, Tumor Site: Type of Lesion: LIVER) is reported as “active; positive”. The carcinogen call (Species: MOUSE, Route: ORAL, SUBCUTANEOUS, Tumor Site: Type of Lesion: LUNG) was “active; positive” and the carcinogen call (Species: RAT, Route: ORAL, SUBCUTANEOUS, Tumor Site: Type of Lesion: LIVER) was “active; positive”.

For `O=C(NCC1CCCCN1)c1cc(OCC(F)(F)F)ccc1OCC(F)(F)F` (stereo not drawn), the carcinogen call (Species: MOUSE, Strain/Sex: CD-1/MALE,FEMALE, Route: ORAL, Dose: 15, 30, 60 MG/KG/DAY IN DIET FOR 18 MO, Dose: 15, 30, 60 MG/KG/DAY IN DIET FOR 18 MO) was “inactive; negative” and the carcinogen call (Species: RAT, Strain/Sex: WISTAR/MALE,FEMALE, Route: ORAL, Dose: 15, 30, 60 MG/KG/DAY IN DIET FOR 24 MO, Dose: 15, 30, 60 MG/KG/DAY IN DIET FOR 24 MO) was “inactive; negative”.

`CC(=O)C(N=Nc1ccc(-c2ccc(N=NC(C(C)=O)C(=O)Nc3ccccc3)c(Cl)c2)cc1Cl)C(=O)Nc1ccccc1` (stereo not drawn) was tested, and the carcinogen call (Species: MOUSE, Strain/Sex: B6C3F1/FEMALE, Route: ORAL, Dose: 0, 2.5, 5% OF DIET, Dose: 0, 2.5, 5% OF DIET) was “inactive; negative”, the carcinogen call (Species: MOUSE, Strain/Sex: B6C3F1/MALE, Route: ORAL, Dose: 0, 2.5, 5% OF DIET, Dose: 0, 2.5, 5% OF DIET) was “inactive; negative” and the carcinogen call (Species: RAT, Strain/Sex: F344/FEMALE, Route: ORAL, Dose: 0, 2.5, 5% OF DIET, Dose: 0, 2.5, 5% OF DIET) was “inactive; negative”. For the same molecule, the carcinogen call (Species: RAT, Strain/Sex: F344/MALE, Route: ORAL, Dose: 0, 2.5, 5% OF DIET, Dose: 0, 2.5, 5% OF DIET) was “inactive; negative”.

`O=C1C(O)N=C(c2ccccc2F)c2cc(Cl)ccc2N1CCO` (stereo not drawn) was tested, and the carcinogen call (Species: RAT, Strain/Sex: SPRAGUE-DAWLEY/FEMALE, Route: ORAL, Dose: 0, 3, 10, 30 MG/KG IN THE DIET FOR 104 WK (STUDY DURATION: 104 WK), Dose: 0, 3, 10, 30 MG/KG IN THE DIET FOR 104 WK (STUDY DURATION: 104 WK)) was “inactive; negative” and the carcinogen call (Species: RAT, Strain/Sex: SPRAGUE-DAWLEY/MALE, Route: ORAL, Dose: 0, 3, 10, 30 MG/KG IN THE DIET FOR 104 WK (STUDY DURATION: 104 WK), Dose: 0, 3, 10, 30 MG/KG IN THE DIET FOR 104 WK (STUDY DURATION: 104 WK)) was “inactive; negative”.

For `CCN(CC)c1ccc2c(-c3ccc(S(=O)(=O)O)cc3S(=O)(=O)[O-])c3ccc(=[N+](CC)CC)cc-3oc2c1`, the carcinogen call (Species: RAT, Strain/Sex: F344/FEMALE, Route: ORAL, Dose: 0, 2.5, 5% IN DIET FOR 106 WK (STUDY DURATION: 106 WK), Dose: 0, 2.5, 5% IN DIET FOR 106 WK (STUDY DURATION: 106 WK)) was “inactive; negative” and the carcinogen call (Species: RAT, Strain/Sex: F344/MALE, Route: ORAL, Dose: 0, 2.5, 5% IN DIET FOR 106 WK (STUDY DURATION: 106 WK), Dose: 0, 2.5, 5% IN DIET FOR 106 WK (STUDY DURATION: 106 WK)) was “inactive; negative”.

For `Cc1cc(=O)n(-c2ccccc2)n1C`, the carcinogen call (Species: RAT, Strain/Sex: SPRAGUE-DAWLEY/MALE, Route: ORAL, Dose: 0, 0.535% IN DIET FOR 117 WK, Tumor Site: Type of Lesion: KIDNEY) was “active; positive”.

`CC(C)(C)O` was tested, and the carcinogen call (Species: MOUSE, Strain/Sex: B6C3F1/FEMALE, Route: ORAL, Dose: 0, 5, 10, 20 MG/ML IN DRINKING WATER FOR 103 WK (STUDY DURATION: 103 WK), Dose: 0, 5, 10, 20 MG/ML IN DRINKING WATER FOR 103 WK (STUDY DURATION: 103 WK), Tumor Site: Type of Lesion: THYROID GLAND: FOLLICULAR CELL ADENOMA) was “active; positive”, the carcinogen call (Species: MOUSE, Strain/Sex: B6C3F1/MALE, Route: ORAL, Dose: 0, 5, 10, 20 MG/ML IN DRINKING WATER FOR 103 WK (STUDY DURATION: 103 WK), Dose: 0, 5, 10, 20 MG/ML IN DRINKING WATER FOR 103 WK (STUDY DURATION: 103 WK), Tumor Site: Type of Lesion: THYROID GLAND: FOLLICULAR CELL ADENOMA OR CARCINOMA) was “equivocal” and the carcinogen call (Species: RAT, Strain/Sex: F344/FEMALE, Route: ORAL, Dose: 0, 2.5, 5, 10 MG/ML IN DRINKING WATER FOR 103 WK (STUDY DURATION: 103 WK), Dose: 0, 2.5, 5, 10 MG/ML IN DRINKING WATER FOR 103 WK (STUDY DURATION: 103 WK)) was “inactive; negative”. The carcinogen call (Species: RAT, Strain/Sex: F344/MALE, Route: ORAL, Dose: 0, 1.25, 2.5, 5 MG/ML IN DRINKING WATER FOR 103 WK (STUDY DURATION: 103 WK), Dose: 0, 1.25, 2.5, 5 MG/ML IN DRINKING WATER FOR 103 WK (STUDY DURATION: 103 WK), Tumor Site: Type of Lesion: KIDNEY (RENAL TUBULE): ADENOMA OR CARCINOMA) was “active; positive”.
